This is an account of results in patent publication US20230398232A1, “Composition and Use of Alternatively Formatted Anti-Mesothelin Antibodies for the Treatment of Cancer” (Navrogen, Inc., priority 2020, published 2023).

One assay has as its system follicular lymphoma. The following applies: CA125 in normal range vs above normal range; cited from earlier work.
Assay [1] concerns NCI-N87, SW1990, HAY, YOU, OVCAR3 and A549 cells. Briefly: Free cytotoxin cytotoxicity, crystal violet viability. The format is cell-based, human. The settings on record: 72 hours, average over cell lines. An excerpt: FIGS. 2A-C. Cytotoxic payloads and linkers examined for developing reformatted MES-1 antibody for optimal killing of immunoproficient and immunosuppressed mesothelin expressing cancer cells. FIG. 2A provides chemical structures of various types of cytotoxic payloads (i.e., microtubule inhibitors, DNA alkylating agents, topoisomerase inhibitors, and protein kinase inhibitors, see, e.g., Yaghoubi S, et al. J Cell Physiol 235:31-64, 2019; Wang R E, et al. J Am Chem Soc 137:3229-3232, 2015) tested against immunosuppressive and immunoproficient mesothelin expressing target cells. FIG. 2B provides chemical structures of various enzymatic and non-enzymatic cleavable and non-cleavable linkers tested to generate MES-ADCs against immunosuppressive and immune-proficient mesothelin expressing target cells. FIG. 2C provides an overview of the cytotoxicity of potential ADC payloads against mesothelin expressing cancer cells or control cell lines (Table 1). Briefly, 96-well tissue culture plates were seeded with 5,000 cells/well of mesothelin-positive NCI-N87 (CA125^+ gastric cancer), SW1990 (CA125^+ pancreatic cancer), HAY (CA125^+ mesothelioma), YOU (CA125^− mesothelioma), OVCAR3 (CA125^+ ovarian cancer) and A549 (mesothelin negative lung cancer) cells in 100 μLs of RPMI plus 7.5% heat inactivated fetal bovine serum (FBS), and 0.0001 to 500 ng/mL of cytotoxin or negative control. Cultures were incubated for 72 hours at 37° C. in 5% CO2 then quantified for viability using crystal violet staining. Dried stained wells were solubilized using 1% SDS in phosphate buffer saline (PBS) and quantified by colorimetric densitometry on a Varioskan™ multi-well plate reader at 570 nm. […] Experiments represent a minimum of triplicate wells. Statistical analysis was done using a two-sided Student' T-test.
To identify best candidates to meet this criteria, we first tested different classes of cytotoxins including DNA alkylating agents, microtubule inhibitors, and topoisomerase inhibitors (FIG. 2A). […]

The next assay concerns mesothelioma. The settings on record: patients with elevated CA125 vs low CA125; cited from earlier work.

Square brackets hold non-standard residues; d marks the D form. Peptide text beside a SMILES is read from it. * marks the point of attachment. Dolaproine = CO[C@@H]([C@@H]1CCCN1)[C@@H](C)C(=O)O; Dil = CC[C@H](C)[C@H](NC)[C@@H](CC(=O)O)OC; X1 = C[C@@H](N*)[C@@H](O)c1ccccc1; NMeV = CN[C@H](C(=O)O)C(C)C

“rituximab: clinically used rituximab antibody”: the “improvement in 5-year progression-free survival” value in the assay with follicular lymphoma is recorded as 31.4%.
For the molecule `CC[C@H](C)[C@@H]([C@@H](CC(=O)N1CCC[C@H]1[C@H](OC)[C@@H](C)C(=O)N[C@H](C)[C@@H](O)c1ccccc1)OC)N(C)C(=O)[C@@H](NC(=O)[C@@H](NC)C(C)C)C(C)C` [MMAE, Monomethyl Auristatin E] (H-[NMeV]V[Dil][Dolaproine]-X1), the “average EC50” value in assay [1] is 1.39 ng/mL.
Still for that read-out and setting: to `CCc1c2c(nc3ccc(O)cc13)-c1cc3c(c(=O)n1C2)COC(=O)[C@]3(O)CC` [SN38] belongs 2.44 ng/mL; to `COc1cccc2c1C(=O)c1c(O)c3c(c(O)c1C2=O)C[C@@](O)(C(=O)CO)C[C@@H]3O[C@H]1C[C@H]2[C@H](O[C@@H]3[C@@H](OC)OCCN32)[C@H](C)O1` [PNU159682, reference compound], 0.014 ng/mL.
Turning to amatuximab: anti-mesothelin antibody, in the assay on mesothelioma, the “PFS and OS outcomes” value is “worse progression-free survival (PFS) and overall survival (OS) outcomes”.
